In patent publication US20150344407A1, “FENDILINE DERIVATIVES AND METHODS OF USE THEREOF” (THE BOARD OF REGENTS OF THE UNIVERSITY OF TEXAS SYSTEM, priority 2012, published 2015):

Key:
[1] = tested on: chemotaxis; assay: Inhibition of chemotaxis; conditions: preliminary data
[2] = tested on: phosphorylated ERK, a protein activated downstream of K-ras; assay: Western immunoblotting for pERK (inhibition of ERK activation); type: cell-based, canine; conditions: Canis lupus familiaris; 4 μM compound, 48 hours, MDCK cells stably expressing GFP-tagged K-rasG12V; whole cell lysates; normalized to vehicle-treated control; read-out: % Inhibition of ERK activation when treated with 4 μM compound
Protocol: (§1) To determine the effect of compounds on localization of K-ras, Mardine Darby canine kidney epithelial (MDCK) cells stably expressing GFP-tagged K-rasG12V (oncogenic K-ras) grown on cover slips were treated with vehicle or compound (4 μM) for 48 hours and fixed with 4% paraformaldehyde. The coverslips were mounted in Mowiol and imaged by confocal microscopy (Nikon A1) using a 60× objective. Images were analyzed by ImageJ software. Densitometric analysis was performed on images to determine the degree of K-ras mislocalization. To determine the effect of compounds on K-ras function, MDCK cells stably expressing GFP-tagged K-rasG12V were treated with vehicle or compound (4 μM) for 48 hours. Following treatment, whole cell lysates were prepared and subjected SDS-PAGE and western blotting to quantify the level of phosphorylated ERK, a protein activated downstream of K-ras. All calculations were normalized to vehicle-treated control.
Western Immunoblotting for pERK: 2×10^5 cells/well were seeded in 6-well cell culture plates. 24 h after seeding, fresh medium containing 1% vehicle (DMSO) or 4 μM test compound (1:100 dilution, such that DMSO was 1%) was added and incubated for 48 h. Cells were lysed in Buffer B (50 mM Tris [pH 7.5], 75 mM NaCl, 25 mM NaF, 5 mM MgCl2, 5 mM EGTA, 1 mM dithiothreitol, 100 μM NaVO4, 1% Nonidet P-40 plus protease inhibitors). SDS-PAGE and immunoblotting with the anti-phospho-p44/42 mitogen-activated protein kinase (MAPK) (ERK1/2) antibody was performed using 20 μg of each whole cell lysate. Signal was detected by enhanced chemiluminescence (SuperSignal; Pierce, Thermo Fisher Scientific, Rockford, Ill.) and imaged by FluorChemQ (Alpha Inotech, San Leandro, Calif.). Quantification of intensities was performed using FluorChemQ software. Results were normalized to vehicle-treated control.

[3] = molecular target: T1, GFP-tagged K-rasG12V (oncogenic K-ras) in MDCK cells (Homo sapiens, UniProt P01116, G12V); assay: K-ras mislocalization, confocal fluorescence microscopy with densitometric analysis; type: cell-based, canine; conditions: 48 hours, MDCK cells stably expressing GFP-tagged K-rasG12V, normalized to vehicle-treated control
T1 construct: mGFP-tagged full length oncogenic mutant K-Ras (GFP-K-RasG12V); expressed in transfected cells
Protocol: FIGS. 1 & 2—Representative images showing degree of K-ras mislocalization with compound treatment (images corresponds with column 3 of Table 2). MDCK cells stably expressing GFP-tagged K-rasG12V were treated with vehicle or compound (4 μM) for 48 hours and fixed with 4% paraformaldehyde. The coverslips were mounted in Mowiol and imaged by confocal microscopy (Nikon A1) using a 60× objective. The number above each image corresponds the fendiline derivative code.
as §1
Fluorescence microscopy: 2×10^5 or 1×10^5 cells/well were seeded in 6- or 12-well cell culture plates, respectively, containing glass coverslips. 24 h after seeding, fresh medium containing 1% vehicle (Dimethyl sulfoxide, DMSO) or 4 μM test compound (1:100 dilution, such that DMSO was 1%) was added and incubated for 48 h, following which the cells were fixed with 4% paraformaldehyde and coverslips were mounted in Mowiol. Cells were imaged in the GFP wavelength (488 nm) using a confocal microscope (Nikon A1) with 60× objective. Images were saved in tagged imaged file format (tiff) and analyzed by ImageJ software. The densitometric ratio of plasma membrane localized K-Ras versus total K-Ras was calculated and normalized to vehicle-treated control.

- % Mislocalization of K-ras when treated with 4 μM compound [3]: 20.53%
Structure (SMILES): CC(NCCC(c1ccccc1)c1ccccc1)c1ccccc1 (stereo not drawn) [Fendiline, 3,3-diphenyl-N-(1-phenylethyl)propan-1-amine]
- Inhibition of chemotaxis [1]: effective at inhibiting chemotaxis at picomolar and nanomolar concentrations
- inhibition at 4 µM [2]: 7.37%
